PubChem BioAssay AID489024 (Sanford-Burnham Center for Chemical Genomics, 2010)
Calls of active or inactive are those of the source.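 Rule for the calls: active = compounds whose mean EC50, the dose giving half the maximal reporter activation, is at or below a set limit; inactive = the rest.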

Target: CHO-CHOP luciferase reporter, UPR activation, luminescence
Assay: activators of PERK-eIF2a-CHOP UPR arm, confirmation, CHO-CHOP cells, luciferase luminescence (AID 489024);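 note: compounds added alone to reporter cells with no tunicamycin stress co-treatment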

Compound	EC50
Oc1ccc(/C=N/Nc2nc(N3CCCC3)nc(N3CCCC3)n2)cc1O	2.93 µM
COc1cc(/C=C(/C#N)c2nc3ccccc3[nH]2)ccc1OCC(=O)Nc1ccccc1C	3.65 µM
Cc1ccc(F)cc1N=Cc1c(O)c2ccccc2oc1=O	6.17 µM
Cc1ccc(C(C[N+](=O)[O-])n2nc(C)cc2C)cc1 (configuration not stated)	9.75 µM
O=C(/C(=C\c1ccccc1)c1nc2ccccc2[nH]1)c1ccc(Cl)cc1	8.43 µM
Oc1ccc(/C=N/Nc2ncnc3c2ncn3Cc2ccccc2)cc1O	13.1 µM
Cc1ccc(/C=C2\CCC3=C2OC(N)=C(C#N)C3c2ccc(C)cc2)cc1 (configuration not stated)	4.55 µM
COc1ccc(NC(=O)c2nc(S(=O)(=O)Cc3cccc(C)c3)ncc2Cl)c(OC)c1	11.5 µM
O=S(=O)(c1ccc(Cl)cc1)c1snnc1-c1ccccc1	11.1 µM
COc1ccc(-c2oc(NC(=O)CCl)c(C#N)c2-c2ccc(OC)cc2)cc1	12.9 µM
O=C(CCl)N1N=C(c2cccs2)CC1c1ccco1 (configuration not stated)	> 80 µM (inactive)
O=C(c1cccs1)N(C(=O)c1cccs1)c1ccc(Br)cn1	13.9 µM
CC(C)(C)C(=O)OCc1nc(-c2ccc(O)c(O)c2)cs1	1.38 µM
CCc1cc(C(=O)c2ccc(C)cc2)c(NC(=O)CCl)s1	13.5 µM
Cc1ccc(NN2C(=O)C=C(c3ccccc3)C2=O)cc1	14.5 µM
CN(c1ccccc1)S(=O)(=O)c1cccc(C(=O)NCCc2ccc(O)c(O)c2)c1	7.53 µM
O=C(Oc1c(CN2CCOCC2)cc(Cl)c2cccnc12)c1ccc(F)cc1	inactive
Oc1c(C(c2ccccn2)N2CCC(Cc3ccccc3)CC2)cc(Cl)c2cccnc12 (configuration not stated)	inactive
Cc1cccc(Cn2cc(/C=C/[N+](=O)[O-])c3ccccc32)c1	7.81 µM
Cc1nn(Cc2c(Cl)cccc2Cl)c(C)c1NC(=O)c1sc2ccccc2c1Cl	inactive
COc1ccc(C(=O)C(CN2CCOCC2)c2ccccc2)cc1 (configuration not stated)	inactive
O=C(Nc1ccc(-c2nc3cc(NC(=O)c4cccs4)ccc3o2)cc1)c1cccs1	6 µM
Oc1ccc2ccccc2c1N=Nc1ccccn1	8.55 µM
C/C(=C\c1ccc(N(C)C)cc1)[N+](=O)[O-]	9.76 µM
CCOc1ccccc1N=Cc1c(O)c2ccccc2oc1=O	7.86 µM
CC[C@@H](C)[C@H](NC(=O)OC(C)(C)C)c1nnc(S(=O)(=O)Cc2cc(C)ccc2C)o1	15.5 µM

Compound	EC50
CCOC(=O)N1CCN(Cc2cc(Cl)c3cccnc3c2O)CC1	inactive
CCOc1ccccc1-n1c(SCC(=O)Nc2ccc(CC)cc2)nc2n[nH]c(C)c2c1=N	7.22 µM
O=C(Nc1ccc(-c2nc3ncccc3o2)cc1)c1ccc([N+](=O)[O-])o1	1.08 µM
Oc1ccc(-c2csc(Nc3ccccn3)n2)cc1O	3.7 µM
COc1ccc(C2=CC(=O)N(Nc3ccccc3)C2=O)cc1	13.5 µM
Cc1ccc(N2CCN(c3ccc(NCc4nc5ccccc5n4C)cc3)CC2)cc1	inactive
O=C1C(CSCc2ccccc2)NC(=S)N1c1ccccc1 (configuration not stated)	inactive
COc1ccc(/C=C/c2nc3cc(-c4ccccc4)ccc3o2)cc1O	12.7 µM
O=C(N/N=C/c1cccc([N+](=O)[O-])c1)c1cc2c(ccc3ccccc32)o1	> 80 µM (inactive)
CN1CSC(=S)N(C)C1	> 80 µM (inactive)
Oc1ccc(/C=N/N(c2ccccc2)c2ccccc2)cc1O	inactive
CC1=CC(=O)C(C(C)C)=C/C1=N/OC(=O)c1cccc([N+](=O)[O-])c1	> 80 µM (inactive)
Cc1ccc2c(C(=O)CCl)c(C)[nH]c2c1	11.2 µM
Clc1ccc(-c2ccc(/C=N/Nc3nncc(-c4ccccc4)n3)o2)cc1	15.6 µM
CN1CCN(c2ccc(NC(=O)c3ccc([N+](=O)[O-])o3)cc2Cl)CC1	0.42 µM
S=C(Nc1ccccc1)c1ccccn1	9.11 µM
CCOC(=O)CSc1cccc2cccnc12	11.4 µM
COc1cccc2sc(Nc3nc(-c4ccccn4)cs3)nc12	1.65 µM
CCCCC1CCC(C(=O)N(CCCC)c2c(N)n(CCCC)c(=O)[nH]c2=O)CC1 (configuration not stated)	> 80 µM (inactive)
O=C(NCc1ccccc1Br)c1cccc2c1C(=O)c1ccc(-c3ccc(OC(F)(F)F)cc3)cc1S2(=O)=O	12.7 µM
CCOC(=O)c1ccc(-c2ccc(/C=N/NC(=O)CN(c3cccc(C)c3)S(C)(=O)=O)o2)cc1	20 µM
CCOc1ccc2nc(SC3CC(=O)N(c4ccc(C)cc4)C3=O)sc2c1 (configuration not stated)	> 80 µM (inactive)
O=C(Nc1nc(-c2ccc3ccccc3c2)cs1)c1ccc(N2C(=O)CCC2=O)cc1	> 80 µM (inactive)
COc1cc2nc(=S)n3[nH]c(CCn4nc(C)cc4C)nc3c2cc1OC	3.93 µM
Cc1ccnc(Nc2nc(-c3ccc(O)c(O)c3)cs2)c1	1.34 µM
COc1ccc2cc(C)c3nnc(SCC(=O)Nc4nc(-c5ccc(F)cc5)cs4)n3c2c1	10.7 µM

Compound	EC50
COc1ccccc1N1C(=O)C=C(Sc2nc(C)cc(C)n2)C1=O	> 80 µM (inactive)
CCN(CC)c1ccc(/C=C2\C(=O)N(c3nnc(C)c(=O)[nH]3)N=C2C)cc1	inactive
O=C(Nc1nc2c(F)cc(F)cc2s1)c1ccccn1	6.35 µM
O=C(NC1CCCC1)C(c1ccc(Cl)cc1)N(Cc1ccc(F)cc1)C(=O)CCl (configuration not stated)	8.34 µM
Cc1cccc(CS(=O)(=O)c2ncc(Cl)c(C(=O)Nc3ccc(F)cc3)n2)c1	9.1 µM
O=C(N/N=C/c1ccccn1)c1cc(-c2ccccc2)nc2ccccc12	5.91 µM
CC(C)c1nnc(NC(=O)CCS(=O)(=O)c2nc(-c3cccs3)cc(C(F)(F)F)n2)s1	13.5 µM
COc1cc(/C=C/[N+](=O)[O-])ccc1O	> 80 µM (inactive)
C/C(=N\NC(=O)c1ccc(F)cc1)c1ccccn1	8.27 µM
Cc1c(C#N)c(NC(=O)CCl)n(Cc2cccs2)c1C	> 80 µM (inactive)
COc1ccc(-c2cc(C(F)(F)F)nc(S(C)(=O)=O)n2)cc1OC	9.31 µM
CCOC(=O)c1cnc(-n2nc(C)cc2C)nc1Nc1ccc(N(C)C)cc1	16.7 µM
Cc1cccc2sc(NC(=O)c3cc(S(=O)(=O)N(C)C)ccc3N3CCCC3)nc12	inactive
COc1ccc(CNC[C@@H](CCCCN(C)Cc2ccc(OC)cc2)N2C[C@H](c3ccccc3)N(CCc3ccc(Cl)c(Cl)c3)C(=O)C2=O)cc1	7.73 µM
Nc1nc(CC(=O)CSc2ccc(Cl)cc2)nc(Nc2ccc(F)cc2)n1	inactive
Cc1cc(SCC(=O)N/N=C/c2ccc(O)c(O)c2)nc2ccccc12	18.3 µM
Cc1c(NC(=O)CSc2cccc3cccnc23)c(=O)n(-c2ccccc2)n1C	6.53 µM
CC(C)N=c1scc(-c2cccs2)n1/N=C/c1ccc(O)c(O)c1O	11.6 µM
COc1ccc(C(=O)Cn2c(C(=O)/C=C/c3ccccc3)nc3ccccc32)cc1	10.1 µM
O=C(CCN1C(=O)C2C3C=CC(C4CC34)C2C1=O)Oc1cccc2cccnc12 (configuration not stated)	11.2 µM
CC(NC(=O)CN(c1cccc(C(F)(F)F)c1)S(=O)(=O)c1ccc(Cl)c([N+](=O)[O-])c1)c1ccccc1 (configuration not stated)	8.07 µM
N#Cc1cc([N+](=O)[O-])c(-n2nnc3ccccc32)c([N+](=O)[O-])c1	18.5 µM
C=C(C(=O)c1ccccc1)C(C(=C)C(=O)c1ccccc1)c1ccc(OC)cc1	15.3 µM
Cc1ccc(-c2cc(-c3ccc(C)cc3)[n+](-c3ccccc3)c(-c3ccc(C)cc3)c2)cc1	3.77 µM
Cc1[nH]c2ccccc2c1CN1CCC(Cc2ccccc2)CC1	11.1 µM
